Patent publication US20220040169A1, “Methods for the Administration of Certain VMAT2 Inhibitors” (Neurocrine Biosciences, Inc., priority 2019, published 2022)

What was measured:
Solubility in water = format: physicochemical
From the text: INGREZZA contains valbenazine, present as valbenazine ditosylate salt, with the chemical name, L-Valine, (2R,3R,11bR)-1,3,4,6,7,11b-hexahydro-9,10-dimethoxy-3-(2-methylpropyl)-2H-benzo[a]quinolizin-2-yl ester, 4-methylbenzenesulfonate (1:2). […] Its molecular formula is C38H54N2O10S2, and its molecular weight is 762.97/mol (ditosylate salt) with the following structure: […]

[1] = Phase 2 and 3 controlled studies and long-term treatment in adults with tardive dyskinesia: Parkinson-like adverse events; format: in vivo, human
From the text: In the Phase 2 and 3 controlled studies in adults with tardive dyskinesia (treatment up to 6 weeks), the incidence of Parkinson-like adverse events (AEs) was 3% (vs. <1% for placebo) and 4% during long-term treatment with valbenazine (up to 48 weeks).

Compound	solubility in water (Solubility in water)	serious Parkinson-like AEs ([1]; NBI clinical studies in tardive dyskinesia patients)	incidence of Parkinson-like adverse events (AEs) ([1]; Phase 2 and 3 controlled studies, adults with tardive dyskinesia, treatment up to 6 weeks, placebo <1%) [%]	incidence of Parkinson-like adverse events (AEs) during long-term treatment ([1]; long-term treatment up to 48 weeks) [%]
COc1cc2c(cc1OC)[C@H]1C[C@@H](OC(=O)[C@@H](N)C(C)C)[C@H](CC(C)C)CN1CC2 [Valbenazine ditosylate, L-Valine, (2R,3R,11bR)-1,3,4,6,7,11b-hexahydro-9,10-dimethoxy-3-(2-methylpropyl)-2H-benzo[a]quinolizin-2-yl ester, 4-methylbenzenesulfonate (1:2)]	slightly soluble	–	–	–
COc1cc2c(cc1OC)[C@H]1C[C@@H](OC(=O)[C@@H](N)C(C)C)[C@H](CC(C)C)CN1CC2 [valbenazine, (S)-2-amino-3-methyl-butyric acid (2R, 3R,11bR)-3-isobutyl-9,10-dimethoxy-1,3,4,6,7,11b-hexahydro-2H-pyrido[2,1-a]isoquinolin-2-yl ester]	–	No serious Parkinson-like AEs were reported	3	4
